Measurements from patent US20040266623A1, “SYNERGISTIC QUINCLORAC HERBICIDAL COMPOSITIONS” (priority 2003, published 2004).

Tests used:
Experiment in all cases: Greenhouse pot test, postemergent spray, visual control rating converted to percent control
Format in all cases: in vivo
[1] = tested on: white clover; settings: for Control (1-9) Clover: scale 1=no control, 9=death of plant
Description: (§1) Pots of crabgrass, dandelion, white clover, and plantain grown in greenhouse soiless growth media were sprayed with a greenhouse pot sprayer at 43.46 gallons of spray solution/acre and allowed to stand in the greenhouse. Visual observation of the effects made by the herbicidal compositions on the plants in the test pots was recorded for control of crabgrass, dandelion, clover and plantain at 24 hours after treatment (HAT), 48 hours after treatment (HAT), 72 hours after treatment (HAT), 7 days after treatment (DAT), 14 days after treatment (DAT) and 21 days after treatment (DAT). A control rating scale of 1 to 9 was used to record the visual observation of the effect of the herbicidal composition on the plants over the time period of the tests. 1=no control, and 9=death of plant, with intervening numbers representing successive degrees of observed effectiveness of the herbicidal composition over time. The 1-9 control rating scale was converted to percent control in the test data charts that follow.
(§2) The test protocol of S. R. Colby as set out in his article entitled “Calculating Synergistic and Antagonistic Responses of Herbicide Compositions,” received for publication Apr. 11, 1966, Contribution No. 3796 and Scientific Article No. 1271 of the Maryland Agricultural Experiment Station, Department pf Agronomy, University of Maryland was followed to evaluate the synergistic properties of the combination of quinclorac plus a herbicidal protox inhibitor, and a combination of quinclorac, plus a herbicidal protox inhibitor plus a herbicidal auxinic agent as compared with the individual herbicides, using Colby's formulas E=X+Y−XY/100 for a two herbicide combination, where E=the expected percent of inhibition of growth by herbicides, X=the percent inhibition of growth by herbicide A at p lb/A, and Y=the percent inhibition of growth by herbicide B at q lb/A, for a given combination of two herbicides. Colby's formula E=X+Y+Z−(XY+XZ+YZ)/100+XYZ/10,000, was used for the three-way herbicide combination evaluation, where E, X and Y are the same as in the two herbicide formula and Z=the percent inhibition of growth by the third herbicide.

[2] = tested on: plantain; settings: for Control (1-9) Plantain: scale 1=no control, 9=death of plant
Description: as §1, §2

[3] = tested on: dandelion; settings: for Control (1-9) Dandelion: scale 1=no control, 9=death of plant
Description: as §1, §2

[4] = tested on: crabgrass; settings: for Control (1-9) Crabgrass: scale 1=no control, 9=death of plant
Description: as §1, §2

O=C(O)c1c(Cl)ccc2cc(Cl)cnc12 [Quinclorac @ 0.75 lbs/A]
7: Control (1-9) Crabgrass ([4]; Test 3, 21 DAT)
1: Control (1-9) Clover ([1]; Test 3, 24 HAT) | Control (1-9) Clover ([1]; Test 4, 24 HAT) | Control (1-9) Plantain ([2]; Test 3, 24 HAT) | Control (1-9) Plantain ([2]; Test 4, 24 HAT) | Control (1-9) Dandelion ([3]; Test 3, 24 HAT) | Control (1-9) Dandelion ([3]; Test 4, 24 HAT) | Control (1-9) Crabgrass ([4]; Test 3, 24 HAT) | Control (1-9) Crabgrass ([4]; Test 4, 24 HAT)
33.3%: % Control Plantain ([2]; Test 3, 7 DAT) | % Control Plantain ([2]; Test 4, 72 HAT) | % Control Dandelion ([3]; Test 3, 21 DAT)
3: Control (1-9) Plantain ([2]; Test 3, 7 DAT) | Control (1-9) Plantain ([2]; Test 4, 72 HAT) | Control (1-9) Dandelion ([3]; Test 3, 21 DAT)
5: Control (1-9) Clover ([1]; Test 3, 14 DAT) | Control (1-9) Plantain ([2]; Test 3, 14 DAT) | Control (1-9) Plantain ([2]; Test 3, 21 DAT)
4: Control (1-9) Clover ([1]; Test 3, 7 DAT) | Control (1-9) Dandelion ([3]; Test 3, 14 DAT)
44.4%: % Control Clover ([1]; Test 3, 7 DAT) | % Control Dandelion ([3]; Test 3, 14 DAT)
88.9%: % Control Clover ([1]; Test 3, 21 DAT)
22.2%: % Control Clover ([1]; Test 3, 72 HAT) | % Control Clover ([1]; Test 4, 72 HAT) | % Control Plantain ([2]; Test 3, 72 HAT) | % Control Dandelion ([3]; Test 3, 7 DAT) | % Control Dandelion ([3]; Test 3, 72 HAT) | % Control Dandelion ([3]; Test 4, 72 HAT) | % Control Crabgrass ([4]; Test 3, 7 DAT) | % Control Crabgrass ([4]; Test 3, 72 HAT) | % Control Crabgrass ([4]; Test 4, 72 HAT)
66.7%: % Control Crabgrass ([4]; Test 3, 14 DAT)
6: Control (1-9) Crabgrass ([4]; Test 3, 14 DAT)
77.8%: % Control Crabgrass ([4]; Test 3, 21 DAT)
11.1%: % Control Clover ([1]; Test 3, 24 HAT) | % Control Clover ([1]; Test 4, 24 HAT) | % Control Plantain ([2]; Test 3, 24 HAT) | % Control Plantain ([2]; Test 4, 24 HAT) | % Control Dandelion ([3]; Test 3, 24 HAT) | % Control Dandelion ([3]; Test 4, 24 HAT) | % Control Crabgrass ([4]; Test 3, 24 HAT) | % Control Crabgrass ([4]; Test 4, 24 HAT)
2: Control (1-9) Clover ([1]; Test 3, 72 HAT) | Control (1-9) Clover ([1]; Test 4, 72 HAT) | Control (1-9) Plantain ([2]; Test 3, 72 HAT) | Control (1-9) Dandelion ([3]; Test 3, 7 DAT) | Control (1-9) Dandelion ([3]; Test 3, 72 HAT) | Control (1-9) Dandelion ([3]; Test 4, 72 HAT) | Control (1-9) Crabgrass ([4]; Test 3, 7 DAT) | Control (1-9) Crabgrass ([4]; Test 3, 72 HAT) | Control (1-9) Crabgrass ([4]; Test 4, 72 HAT)
8: Control (1-9) Clover ([1]; Test 3, 21 DAT)
55.6%: % Control Clover ([1]; Test 3, 14 DAT) | % Control Plantain ([2]; Test 3, 14 DAT) | % Control Plantain ([2]; Test 3, 21 DAT)

Cc1cc(Cl)ccc1OCC(=O)OCCCCCC(C)C [MCPA IOE @ 1.10 lbs/A]
1: Control (1-9) Crabgrass ([4]; Test 3, 7 DAT) | Control (1-9) Crabgrass ([4]; Test 3, 24 HAT) | Control (1-9) Crabgrass ([4]; Test 3, 72 HAT) | Control (1-9) Crabgrass ([4]; Test 4, 24 HAT) | Control (1-9) Crabgrass ([4]; Test 4, 72 HAT)
77.8%: % Control Plantain ([2]; Test 3, 14 DAT) | % Control Plantain ([2]; Test 3, 21 DAT) | % Control Dandelion ([3]; Test 3, 14 DAT)
11.1%: % Control Crabgrass ([4]; Test 3, 7 DAT) | % Control Crabgrass ([4]; Test 3, 24 HAT) | % Control Crabgrass ([4]; Test 3, 72 HAT) | % Control Crabgrass ([4]; Test 4, 24 HAT) | % Control Crabgrass ([4]; Test 4, 72 HAT)
8: Control (1-9) Clover ([1]; Test 3, 14 DAT) | Control (1-9) Dandelion ([3]; Test 3, 21 DAT)
2: Control (1-9) Plantain ([2]; Test 4, 24 HAT) | Control (1-9) Crabgrass ([4]; Test 3, 14 DAT)
66.7%: % Control Clover ([1]; Test 3, 7 DAT) | % Control Plantain ([2]; Test 3, 7 DAT) | % Control Dandelion ([3]; Test 3, 7 DAT)
22.2%: % Control Plantain ([2]; Test 4, 24 HAT) | % Control Crabgrass ([4]; Test 3, 14 DAT)
9: Control (1-9) Clover ([1]; Test 3, 21 DAT)
7: Control (1-9) Plantain ([2]; Test 3, 14 DAT) | Control (1-9) Plantain ([2]; Test 3, 21 DAT) | Control (1-9) Dandelion ([3]; Test 3, 14 DAT)
4: Control (1-9) Clover ([1]; Test 3, 24 HAT) | Control (1-9) Clover ([1]; Test 3, 72 HAT) | Control (1-9) Clover ([1]; Test 4, 24 HAT) | Control (1-9) Plantain ([2]; Test 3, 24 HAT) | Control (1-9) Plantain ([2]; Test 3, 72 HAT) | Control (1-9) Plantain ([2]; Test 4, 72 HAT) | Control (1-9) Crabgrass ([4]; Test 3, 21 DAT)
5: Control (1-9) Clover ([1]; Test 4, 72 HAT) | Control (1-9) Dandelion ([3]; Test 3, 72 HAT) | Control (1-9) Dandelion ([3]; Test 4, 72 HAT)
6: Control (1-9) Clover ([1]; Test 3, 7 DAT) | Control (1-9) Plantain ([2]; Test 3, 7 DAT) | Control (1-9) Dandelion ([3]; Test 3, 7 DAT)
3: Control (1-9) Dandelion ([3]; Test 3, 24 HAT) | Control (1-9) Dandelion ([3]; Test 4, 24 HAT)
88.9%: % Control Clover ([1]; Test 3, 14 DAT) | % Control Dandelion ([3]; Test 3, 21 DAT)
55.6%: % Control Clover ([1]; Test 4, 72 HAT) | % Control Dandelion ([3]; Test 3, 72 HAT) | % Control Dandelion ([3]; Test 4, 72 HAT)
44.4%: % Control Clover ([1]; Test 3, 24 HAT) | % Control Clover ([1]; Test 3, 72 HAT) | % Control Clover ([1]; Test 4, 24 HAT) | % Control Plantain ([2]; Test 3, 24 HAT) | % Control Plantain ([2]; Test 3, 72 HAT) | % Control Plantain ([2]; Test 4, 72 HAT) | % Control Crabgrass ([4]; Test 3, 21 DAT)
100.0%: % Control Clover ([1]; Test 3, 21 DAT)
33.3%: % Control Dandelion ([3]; Test 3, 24 HAT) | % Control Dandelion ([3]; Test 4, 24 HAT)
